# Test results from US20260183434A1, “NEW SENESCENCE TRACER GENERATION” (Eberhard Karls Universitaet Tuebingen Medizinische Fakultaet, priority 2023, published 2026).
# Values joined by “and” are separate entries in the source; they are usually repeats but may differ in a detail not shown here. Identical values can stand only once.
# Key:
# CT26.CL25 (LacZ+) = assay: In vitro tracer uptake (gamma counter) in β-galactosidase (LacZ) overexpressing cells; format: cell-based; conditions: β-galactosidase (LacZ) overexpression model; 1×10^6 cells, 0.74 MBq tracer, 40 min, 37° C.
# Protocol: (§1) Cells were cultured in a humidified incubator (Binder, Tuttlingen, Germany) at 37° C. and 5% CO2. Fetal bovine serum (FBS, Sigma of Merck) was heat-inactivated for 30 min at 57° C. for cell culture supplementation. For in vitro uptake experiments, the cells were rinsed with DPBS, harvested with a cell scraper and finally centrifuged. The cell pellet was then washed with DPPS and resuspended in DPBS, before being counted. A suspension of 1×10^6 cells in 1 ml DPBS was incubated with 0.74 MBq of tracer at 37° C. and 5% CO2 for 40 min. After the designated incubation time, the suspension was centrifuged. The cell pellet was transferred into a fresh gamma counter tube (Sarstedt), washed twice with 1 ml DPBS and resuspended in 1 ml DPBS. The uptake was measured with a 2480 Wizard^2 automated gamma counter (Perkin Elmer).
# (§2) In vitro experiments were performed by uptake quantification in a gamma-counter. In all experiments, 1 million of each of the cell lines were treated with 20 μCi of tracer. After incubation time of 40 minutes, the cells were centrifuged, the supernatant discarded and the cell pellet resuspended in fresh PBS. The samples were then measured in biodistribution tubes in a gamma counter. The tracers were tested first using a β-galactosidase (LacZ) overexpression model of a colon carcinoma cell line (CT26-CL25) and the wild type (CT26) as control (FIG. 2A). Next, the tracers were tested in a senescent cell model: a liver carcinoma cell line (Amp19) treated with ribosomal checkpoint inhibitor (RCI) (FIGS. 2B and 2C).
# Amp19 tumors [1] = assay: Dynamic PET scans of Amp19 tumor bearing mice; format: in vivo
# Protocol: (§3) Animal procedures were approved by the local authorities (Regierungspraesidium Tuebingen, Tuebingen, Germany) and conducted according to the German Animal Welfare Act. The mice used were between 6 and 7 weeks of age. Tumors were implanted by injecting 0.5×10^6 cells s.c. into the right flank of SCID beige mice. When most tumors reached 100 mm^3 (˜3 weeks post inoculation), the animals were randomized into two groups. The groups received 25 mg/kg/d CX-5461 (AdooQ BioScience, Irvine, CA, USA) or vehicle [50 mM monosodium phosphate (Sigma of Merck KGaA, Darmstadt, Germany), pH 4.5]i.p. for five consecutive days.
# Anatomical imaging was conducted on a 7 Tesla small animal MRI scanner with a rat whole body coil and Paravision® software (Bruker, Billerica, MA, USA). The animals were then transferred to the PET scanner without moving the animal to ensure co-registration. The animals received 12±1 MBq tracer (determined by a CRC 15-R dose calibrator) was injected through a tail vein catheter, which was subsequently flushed with 50 μl heparinized saline solution. The transmission scan using an external ^57Co point source was performed for the attenuation correction. […]
# The list mode raw file was histogrammed and reconstructed with OSEM3D/SP-MAP algorithm implemented in Inveon Acquisition Workplace. […] The tracer uptake was calculated as the percentage of the injected dose per cubic centimeter (% ID/cc). […]
# Amp19 = assay: In vitro tracer uptake (gamma counter) in Amp19 senescence cell model; format: cell-based; conditions: 1×10^6 cells, 0.74 MBq tracer, 40 min; for Uptake in % ID per million cells, Amp19 (cntrl): control Amp19 cells; for Uptake in % ID per million cells, Amp19 (sen): senescent Amp19 cells (treated with RCI)
# Protocol: as §1, §2
# HCT116 = assay: In vitro tracer uptake (gamma counter) in HCT116 senescence cell model; format: cell-based; conditions: 1×10^6 cells, 0.74 MBq tracer, 40 min; for Uptake in % ID per million cells, HCT116 (cntrl): control HCT116 cells; for Uptake in % ID per million cells, HCT116 (sen): senescent HCT116 cells
# Protocol: as §1
# CT26 = assay: In vitro tracer uptake (gamma counter) in wild type CT26 control cells; format: cell-based; conditions: 1×10^6 cells, 0.74 MBq tracer, 40 min, 37° C.
# Protocol: as §1, §2
# Amp19 tumors [2] = assay: Ex vivo autoradiography of Amp19 tumors after tracer administration; format: in vivo, mice; conditions: cx-treated (senescent) vs non-senescent control Amp19 tumors, FIG. 5
# Protocol: as §3
# For autoradiography, the tumors were embedded in the optimal cutting temperature compound (Tissue-Tek® O.C.T., Sakura, Alphen aan den Rijn, Netherlands) and frozen at −20° C. in the cryotome (Leica, Wetzlar, Germany). Cryosections (20 μm) were then attached to microscope slides (SuperFrost® Plus, R. Langenbrinck, Emmendingen, Germany). The slides were exposed overnight to a phosphor screen (Molecular Dynamics of GE Healthcare). The screen was then scanned by the phosphorimager (Storm 840, Amersham of GE Healthcare). The signal intensities of sections were normalized to each other based on decay corrected animal receiving dose with the open-source software ImageJ (National Institute of Health, Bethesda, MD, USA). […]
SMILES,"Uptake in % ID per million cells, CT26.CL25 (LacZ+) (CT26.CL25 (LacZ+))","Dynamic uptake in tumors (PET) (Amp19 tumors [1]; CX-treated (senescent) vs untreated control Amp19 tumors, tracer i.v., FIG. 4)","Washout of tumor uptake (dynamic PET) (Amp19 tumors [1]; treated and untreated Amp19 tumors, uptake stable, reaches a maximum and plateaus)","Uptake in % ID per million cells, Amp19 (cntrl) (Amp19) [% ID per million cells]","Uptake in % ID per million cells, Amp19 (sen) (Amp19) [% ID per million cells]","Uptake in % ID per million cells, HCT116 (cntrl) (HCT116) [% ID per million cells]","Uptake in % ID per million cells, HCT116 (sen) (HCT116) [% ID per million cells]","Uptake in % ID per million cells, CT26 (CT26) [% ID per million cells]",Autoradiography signal accumulation in tumors (Amp19 tumors [2])
OC[C@H]1O[C@@H](Oc2cc([18F])ccc2COc2c(F)c(F)cc(F)c2F)[C@H](O)[C@@H](O)[C@H]1O [[^18F]TFPBGal],7.514 % ID per million cells,higher in CX-treated (senescent) tumors compared to untreated controls at all time points,no observable washout effect,3.641,0.3992,4.745,2.761,2.444,–
OC[C@H]1O[C@@H](Oc2ccc(NCCC[18F])cc2COc2c(F)c(F)cc(F)c2F)[C@H](O)[C@@H](O)[C@H]1O [[^18F]ADTFPBGal],4.515 % ID per million cells,–,–,1.085,0.205,1.564,0.6573,1.403,–
OC[C@H]1O[C@@H](Oc2ccc(N3CCN(CCC[18F])CC3)cc2)[C@H](O)[C@@H](O)[C@H]1O [[^18F]PIPGal],0.06898 % ID per million cells,–,–,0.3165,0.04018,0.1219,0.09843,0.3131,High signal accumulation is observed in the cx-treated (senescent) tumors compared to the non-senescent controls
O=[N+]([O-])c1ccc(OCc2cc(NCCC[18F])ccc2O[C@@H]2O[C@H](CO)[C@H](O)[C@H](O)[C@H]2O)cc1 [[^18F]NO2BGal],0.9792 % ID per million cells,–,–,1.286,0.3245,0.5052,0.3026,1.492,–
"OC[C@H]1O[C@@H](Oc2cccnc2[18F])[C@H](O)[C@@H](O)[C@H]1O [[^18F]FPyGal, reference compound]",0.5769 % ID per million cells and 1.117 % ID per million cells,–,–,0.2657,0.0639,0.3438,0.1998,–,–
